Columns and labels:
Type in all cases: in vivo
[1] = test system: redroot pigweed (Amaranthus retroflexus, AMARE); test: Pre-emerge test, greenhouse herbicide activity screening; settings: for Pre-emerge herbicidal activity, phytotoxicity rating AMARE: rating scale 0-100, 14 days after application; for phytotoxicity rating AMARE: pre-emerge, 14 days after application, rating scale 0-100
Source text: (§1) A standard greenhouse herbicide activity screening system was used to evaluate the herbicidal efficacy and crop safety of these test compounds. Seven broadleaf weed species including redroot pigweed (Amaranthus retroflexus, AMARE, velvetleaf (Abutilon theophrasti, ABUTH), sicklepod (Cassia obtusifolia, CASOB), ivyleaf morningglory (Ipomoea hederacea, IPOHE), lambsquarters (Chenopodium album, CHEAL), common ragweed (Ambrosia artemisizfolia L., AMBEL), and cocklebur (Xanthium strumarium, XANST) were used as test species. Four grass weed species including green foxtail (Setaria viridis, SETVI), barnyardgrass (Echinochloa crus-galli, ECHCG), johnsongrass (Sorghum halepense, SORHA), and large crabgrass (Digitaria sanguinalis, DIGSA) were also used. In addition, three crop species, field corn (Zea mays L., var. Dekalb 535, CORN), soybean (Glycine max L., var. Pella 86, SOY), and is upland rice (Oryza sp., var. Tebonnet, RICE) were included.
(§2) All plants were grown in 10 cm square plastic pots which were filled with a sandy loam soil mix. For pre-emerge tests, seeds were planted one day prior to application of the test compounds. For post-emerge tests, seeds were planted 8-21 days prior to the test to allow emergence and good foliage development prior to application of the test substances. At the time of the post-emerge application, plants of all species were usually at the 2-3 leaf stage of development.
All test compounds Were dissolved in acetone and applied to the test units in a volume of 187 l /ha. […] Plants were arranged on a shelf so that the top of the canopy (post-emerge) or top of the soil surface (pre-emerge) was 40-45 cm below the nozzle. Pressurized air was used to force the test solution through the nozzle as it was mechanically advanced (via electrically driven chain drive) over the top of all test plants/pots. This application simulates a typical commercial field herbicide application.
(§3) In the post-emerge test, a commercial non-ionic surfactant was also included (0.25% v/v) to enhance wetting of the leaf surfaces of target plants. Immediately after application, test units of the pre-emerge applications were watered at the soil surface to incorporate the test materials. Subsequently, these test units were bottom-watered. Post-emerge test units were always bottom-watered.
(§4) At 14 days after application of the test materials, phytotoxicity ratings were recorded. A rating scale of 0-100 was used as previously described in Research Methods in Weed Science, 2nd edition, B. Truelove, Ed., Southern Weed Science Society, Auburn University, Auburn, Ala. 1977. Briefly, “0” corresponds to no damage and “100” corresponds to complete death of all plants in the test unit. This scale was used both to determine efficacy against weed species and damage to crop species. Herbicide activity data for various compounds of this invention, which are shown by compound No. in Tables 1-8, are shown in Tables 11 and 12.

[2] = test system: barnyardgrass (Echinochloa crus-galli, ECHCG); test: as above; settings: for Pre-emerge herbicidal activity, phytotoxicity rating ECHCG: rating scale 0-100, 14 days after application; for phytotoxicity rating ECHCG: pre-emerge, 14 days after application, rating scale 0-100
Source text: as §1, §2
(§5) All test compounds Were dissolved in acetone and applied to the test units in a volume of 187 l /ha. Test materials were applied at rates ranging from 15 g ai/ha to 1000 g ai/ha using a track sprayer equipped with a TJ8001E even flow flat fan spray nozzle. Plants were arranged on a shelf so that the top of the canopy (post-emerge) or top of the soil surface (pre-emerge) was 40-45 cm below the nozzle. Pressurized air was used to force the test solution through the nozzle as it was mechanically advanced (via electrically driven chain drive) over the top of all test plants/pots. This application simulates a typical commercial field herbicide application.
as §3, §4

[3] = test system: green foxtail (Setaria viridis, SETVI); test: as above; settings: for Pre-emerge herbicidal activity, phytotoxicity rating SETVI: rating scale 0-100, 14 days after application; for phytotoxicity rating SETVI: pre-emerge, 14 days after application, rating scale 0-100
Source text: as §1, §2, §5, §3, §4

[4] = test system: ivyleaf morningglory (Ipomoea hederacea, IPOHE); test: as above; settings: for Pre-emerge herbicidal activity, phytotoxicity rating IPOHE: rating scale 0-100, 14 days after application; for phytotoxicity rating IPOHE: pre-emerge, 14 days after application, rating scale 0-100
Source text: as §1, §2, §5, §3, §4

[5] = test system: lambsquarters (Chenopodium album, CHEAL); test: as above; settings: for Pre-emerge herbicidal activity, phytotoxicity rating CHEAL: rating scale 0-100, 14 days after application; for phytotoxicity rating CHEAL: pre-emerge, 14 days after application, rating scale 0-100
Source text: as §1, §2, §5, §3, §4

[6] = test system: large crabgrass (Digitaria sanguinalis, DIGSA); test: as above; settings: for Pre-emerge herbicidal activity, phytotoxicity rating DIGSA: rating scale 0-100, 14 days after application; for phytotoxicity rating DIGSA: pre-emerge, 14 days after application, rating scale 0-100
Source text: as §1, §2, §5, §3, §4

[7] = test system: sicklepod (Cassia obtusifolia, CASOB); test: as above; settings: for Pre-emerge herbicidal activity, phytotoxicity rating CASOB: rating scale 0-100, 14 days after application; for phytotoxicity rating CASOB: pre-emerge, 14 days after application, rating scale 0-100
Source text: as §1, §2, §5, §3, §4

[8] = test system: velvetleaf (Abutilon theophrasti, ABUTH); test: as above; settings: for Pre-emerge herbicidal activity, phytotoxicity rating ABUTH: rating scale 0-100, 14 days after application; for phytotoxicity rating ABUTH: pre-emerge, 14 days after application, rating scale 0-100
Source text: as §1, §2, §5, §3, §4

[9] = test system: barnyardgrass (Echinochloa crus-galli, ECHCG); test: Post-emerge test, greenhouse herbicide activity screening; settings: 14 days after application; for Post-emerge Herbicidal Activity, phytotoxicity rating ECHCG: rating scale 0-100 (0 no damage, 100 complete death); for Post-emerge Herbicidal Activity ECHCG (phytotoxicity rating): rating scale 0-100
Source text: as §1, §2, §5, §3, §4

[10] = test system: green foxtail (Setaria viridis, SETVI); test: as above; settings: 14 days after application; for Post-emerge Herbicidal Activity, phytotoxicity rating SETVI: rating scale 0-100 (0 no damage, 100 complete death); for Post-emerge Herbicidal Activity SETVI (phytotoxicity rating): rating scale 0-100
Source text: as §1, §2, §5, §3, §4

[11] = test system: ivyleaf morningglory (Ipomoea hederacea, IPOHE); test: as above; settings: 14 days after application; for Post-emerge Herbicidal Activity, phytotoxicity rating IPOHE: rating scale 0-100 (0 no damage, 100 complete death); for Post-emerge Herbicidal Activity IPOHE (phytotoxicity rating): rating scale 0-100
Source text: as §1, §2, §5, §3, §4

[12] = test system: lambsquarters (Chenopodium album, CHEAL); test: as above; settings: 14 days after application; for Post-emerge Herbicidal Activity, phytotoxicity rating CHEAL: rating scale 0-100 (0 no damage, 100 complete death); for Post-emerge Herbicidal Activity CHEAL (phytotoxicity rating): rating scale 0-100
Source text: as §1, §2, §5, §3, §4

[13] = test system: large crabgrass (Digitaria sanguinalis, DIGSA); test: as above; settings: 14 days after application; for Post-emerge Herbicidal Activity, phytotoxicity rating DIGSA: rating scale 0-100 (0 no damage, 100 complete death); for Post-emerge Herbicidal Activity DIGSA (phytotoxicity rating): rating scale 0-100
Source text: as §1, §2, §5, §3, §4

[14] = test system: redroot pigweed (Amaranthus retroflexus, AMARE); test: as above; settings: 14 days after application
Source text: as §1, §2, §5, §3, §4

[15] = test system: sicklepod (Cassia obtusifolia, CASOB); test: as above; settings: 14 days after application; for Post-emerge Herbicidal Activity, phytotoxicity rating CASOB: rating scale 0-100 (0 no damage, 100 complete death); for Post-emerge Herbicidal Activity CASOB (phytotoxicity rating): rating scale 0-100
Source text: as §1, §2, §5, §3, §4

[16] = test system: velvetleaf (Abutilon theophrasti, ABUTH); test: as above; settings: 14 days after application; for Post-emerge Herbicidal Activity, phytotoxicity rating ABUTH: rating scale 0-100 (0 no damage, 100 complete death); for Post-emerge Herbicidal Activity ABUTH (phytotoxicity rating): rating scale 0-100
Source text: as §1, §2, §5, §3, §4

CCOC(=O)C(Cl)Cc1c(OC)c(Cl)cc(F)c1-n1c(=O)cc(C(F)(F)F)n(C)c1=O (single isomer, unassigned) [Compound 14-4, 3-{4-chloro-2-[2-chloro-2-(ethoxycarbonyl)ethyl]-6-fluoro-3-methoxyphenyl}-1-methyl-6-trifluoromethyl-2,4(1H, 3H)-pyrimidinedione]
Pre-emerge herbicidal activity, phytotoxicity rating AMARE ([1]; 63 g ai/ha): 90
Pre-emerge herbicidal activity, phytotoxicity rating AMARE ([1]; 250 g ai/ha): 100
Pre-emerge herbicidal activity, phytotoxicity rating ECHCG ([2]; 63 g ai/ha): 0
Pre-emerge herbicidal activity, phytotoxicity rating ECHCG ([2]; 250 g ai/ha): 0
Pre-emerge herbicidal activity, phytotoxicity rating SETVI ([3]; 63 g ai/ha): 10
Pre-emerge herbicidal activity, phytotoxicity rating SETVI ([3]; 250 g ai/ha): 40
Pre-emerge herbicidal activity, phytotoxicity rating IPOHE ([4]; 63 g ai/ha): 0
Pre-emerge herbicidal activity, phytotoxicity rating IPOHE ([4]; 250 g ai/ha): 70
Pre-emerge herbicidal activity, phytotoxicity rating CHEAL ([5]; 63 g ai/ha): 60
Pre-emerge herbicidal activity, phytotoxicity rating CHEAL ([5]; 250 g ai/ha): 100
Pre-emerge herbicidal activity, phytotoxicity rating DIGSA ([6]; 63 g ai/ha): 20
Pre-emerge herbicidal activity, phytotoxicity rating DIGSA ([6]; 250 g ai/ha): 95
Pre-emerge herbicidal activity, phytotoxicity rating CASOB ([7]; 63 g ai/ha): 20
Pre-emerge herbicidal activity, phytotoxicity rating CASOB ([7]; 250 g ai/ha): 20
Pre-emerge herbicidal activity, phytotoxicity rating ABUTH ([8]; 63 g ai/ha): 50
Pre-emerge herbicidal activity, phytotoxicity rating ABUTH ([8]; 250 g ai/ha): 80
Post-emerge Herbicidal Activity, phytotoxicity rating ECHCG ([9]; Rate 63 g ai/ha): 85
Post-emerge Herbicidal Activity, phytotoxicity rating ECHCG ([9]; Rate 250 g ai/ha): 99
Post-emerge Herbicidal Activity, phytotoxicity rating SETVI ([10]; Rate 63 g ai/ha): 30
Post-emerge Herbicidal Activity, phytotoxicity rating SETVI ([10]; Rate 250 g ai/ha): 65
Post-emerge Herbicidal Activity, phytotoxicity rating IPOHE ([11]; Rate 63 g ai/ha): 50
Post-emerge Herbicidal Activity, phytotoxicity rating IPOHE ([11]; Rate 250 g ai/ha): 60
Post-emerge Herbicidal Activity, phytotoxicity rating CHEAL ([12]; Rate 63 g ai/ha): 100
Post-emerge Herbicidal Activity, phytotoxicity rating CHEAL ([12]; Rate 250 g ai/ha): 100
Post-emerge Herbicidal Activity, phytotoxicity rating DIGSA ([13]; Rate 63 g ai/ha): 75
Post-emerge Herbicidal Activity, phytotoxicity rating DIGSA ([13]; Rate 250 g ai/ha): 95
Post-emerge Herbicidal Activity, phytotoxicity rating AMARE ([14]; Rate 63 g ai/ha, rating scale 0-100 (0 no damage, 100 complete death)): 100
Post-emerge Herbicidal Activity, phytotoxicity rating AMARE ([14]; Rate 250 g ai/ha, rating scale 0-100 (0 no damage, 100 complete death)): 100
Post-emerge Herbicidal Activity, phytotoxicity rating CASOB ([15]; Rate 63 g ai/ha): 50
Post-emerge Herbicidal Activity, phytotoxicity rating CASOB ([15]; Rate 250 g ai/ha): 100
Post-emerge Herbicidal Activity, phytotoxicity rating ABUTH ([16]; Rate 63 g ai/ha): 80
Post-emerge Herbicidal Activity, phytotoxicity rating ABUTH ([16]; Rate 250 g ai/ha): 100

COc1c(Cl)cc(F)c(-n2c(=O)cc(C(F)(F)F)n(C)c2=O)c1NN [Compound 15-1, 3-[4-chloro-2-diazanyl-6-fluoro-3-methoxyphenyl]-1-methyl-6-trifluoromethyl-2,4(1H, 3H)-pyrimidinedione]
phytotoxicity rating AMARE ([1]; 63 g ai/ha): 100
phytotoxicity rating AMARE ([1]; 250 g ai/ha): 100
phytotoxicity rating ECHCG ([2]; 63 g ai/ha): 91
phytotoxicity rating ECHCG ([2]; 250 g ai/ha): 100
phytotoxicity rating SETVI ([3]; 63 g ai/ha): 100
phytotoxicity rating SETVI ([3]; 250 g ai/ha): 100
phytotoxicity rating IPOHE ([4]; 63 g ai/ha): 100
phytotoxicity rating IPOHE ([4]; 250 g ai/ha): 100
phytotoxicity rating CHEAL ([5]; 63 g ai/ha): 100
phytotoxicity rating CHEAL ([5]; 250 g ai/ha): 100
phytotoxicity rating DIGSA ([6]; 63 g ai/ha): 100
phytotoxicity rating DIGSA ([6]; 250 g ai/ha): 100
phytotoxicity rating CASOB ([7]; 63 g ai/ha): 100
phytotoxicity rating CASOB ([7]; 250 g ai/ha): 100
phytotoxicity rating ABUTH ([8]; 63 g ai/ha): 100
phytotoxicity rating ABUTH ([8]; 250 g ai/ha): 100
Post-emerge Herbicidal Activity ECHCG (phytotoxicity rating) ([9]; 63 g ai/ha): 80
Post-emerge Herbicidal Activity ECHCG (phytotoxicity rating) ([9]; 250 g ai/ha): 99
Post-emerge Herbicidal Activity SETVI (phytotoxicity rating) ([10]; 63 g ai/ha): 80
Post-emerge Herbicidal Activity SETVI (phytotoxicity rating) ([10]; 250 g ai/ha): 100
Post-emerge Herbicidal Activity IPOHE (phytotoxicity rating) ([11]; 63 g ai/ha): 100
Post-emerge Herbicidal Activity IPOHE (phytotoxicity rating) ([11]; 250 g ai/ha): 100
Post-emerge Herbicidal Activity CHEAL (phytotoxicity rating) ([12]; 63 g ai/ha): 100
Post-emerge Herbicidal Activity CHEAL (phytotoxicity rating) ([12]; 250 g ai/ha): 100
Post-emerge Herbicidal Activity DIGSA (phytotoxicity rating) ([13]; 63 g ai/ha): 90
Post-emerge Herbicidal Activity DIGSA (phytotoxicity rating) ([13]; 250 g ai/ha): 100
Post-emerge Herbicidal Activity AMARE (phytotoxicity rating) ([14]; 63 g ai/ha, rating scale 0-100 (0 no damage, 100 complete death)): 100
Post-emerge Herbicidal Activity AMARE (phytotoxicity rating) ([14]; 250 g ai/ha, rating scale 0-100): 100
Post-emerge Herbicidal Activity CASOB (phytotoxicity rating) ([15]; 63 g ai/ha): 100
Post-emerge Herbicidal Activity CASOB (phytotoxicity rating) ([15]; 250 g ai/ha): 100
Post-emerge Herbicidal Activity ABUTH (phytotoxicity rating) ([16]; 63 g ai/ha): 100
Post-emerge Herbicidal Activity ABUTH (phytotoxicity rating) ([16]; 250 g ai/ha): 100

— patent US6355799B1, “Substituted benzene compounds, process for their preparation, and herbicidal and defoliant compositions containing them” (ISK Americas Incorporated, priority 1997, dated 2002)
